Laboratory results published in ChEMBL document CHEMBL5257097, “An Isomer of Galidesivir That Potently Inhibits Influenza Viruses and Members of the Bunyavirales Order” (ACS Med Chem Lett, 2023).
pEC50: −log10 of the molar value.

Columns and labels:
[1] = (§1) Selectivity index, ratio of CC50 for cytotoxicity against dog MDCK cells infected with Influenza A virus H1N1 assessed as reduction in cell viability by neutral red dye based analysis to EC50 for antiviral activity against Influenza A virus H1N1 infected in dog MDCK cells assessed as reduction in virus-induced cytopathic effect by neutral red dye based analysis; assay type: toxicity; conditions: read-out: Ratio CC50/EC50
[2] = Cytotoxicity against African green monkey Vero 76 cells infected with MERS-CoV assessed as reduction in cell viability by visual analysis; assay type: toxicity, cell-based; conditions: chlorocebus sabaeus
[3] = test system: dengue virus type 2; experiment: Antiviral activity against DENV-2 infected in human Huh-7 cells assessed as reduction in virus-induced cytopathic effect measured after 15 to 30 mins by visual analysis; assay type: functional, organism-based
[4] = as §1, with “visual” for “neutral red dye based”; assay type: toxicity, cell-based; conditions: read-out: Ratio CC50/EC50
[5] = as §1, with “human Huh-7” for “dog MDCK”, “DENV-2” for “Influenza A virus H1N1”, “red” for “red dye based”; assay type: toxicity, cell-based; conditions: read-out: Ratio CC50/EC50
[6] = Cytotoxicity against African green monkey Vero 76 cells infected with Rift valley fever virus assessed as reduction in cell viability by neutral red dye based analysis; assay type: toxicity; conditions: chlorocebus sabaeus
[7] = test system: Huh-7; experiment: Cytotoxicity against human Huh-7 cells infected with Yellow fever virus assessed as reduction in cell viability by neutral red dye based assay; assay type: functional
[8] = as §1, with “African green monkey Vero 76” for “dog MDCK”, “Rift valley fever” for “Influenza A”, “virus” for “virus H1N1”, “visual” for “neutral red dye based”; assay type: toxicity, cell-based; conditions: read-out: Ratio CC50/EC50
[9] = test system: dengue virus type 2; experiment: Antiviral activity against DENV-2 infected in human Huh-7 cells assessed as reduction in virus-induced cytopathic effect measured after 15 to 30 mins by neutral red based analysis; assay type: functional, organism-based
[10] = Cytotoxicity against African green monkey Vero 76 cells infected with Zika virus assessed as reduction in cell viability by visual analysis; assay type: toxicity, cell-based; conditions: chlorocebus sabaeus
[11] = test system: Zika virus; experiment: Antiviral activity against Zika virus infected in African green monkey Vero 76 cells assessed as reduction in virus-induced cytopathic effect measured after 15 to 30 mins by neutral red based spectrophotometric analysis; assay type: functional, organism-based
[12] = Cytotoxicity against African green monkey Vero 76 cells infected with Rift valley fever virus assessed as reduction in cell viability by visual analysis; assay type: toxicity, cell-based; conditions: chlorocebus sabaeus
[13] = test system: Middle East respiratory syndrome-related coronavirus; experiment: Antiviral activity against MERS-CoV infected in African green monkey Vero 76 cells assessed as reduction in virus-induced cytopathic effect measured after 15 to 30 mins by visual analysis; assay type: functional, organism-based
[14] = as §1, with “African green monkey Vero 76” for “dog MDCK”, “La Crosse” for “Influenza A”, “virus” for “virus H1N1”, “dye” for “dye based”, “viral replication” for “virus-induced cytopathic effect”; assay type: toxicity, cell-based; conditions: read-out: Ratio CC50/EC50
[15] = test system: La Crosse virus; experiment: Antiviral activity against La Crosse virus infected in African green monkey Vero E6 cells assessed as inhibition of viral replication by visual analysis; assay type: functional, organism-based; conditions: Vero C1008
[16] = test system: Mammarenavirus choriomeningitidis; experiment: Antiviral activity against Lymphocytic choriomeningitis virus infected in African green monkey Vero E6 cells assessed as reduction in viral yield measured for 3 days; assay type: functional; conditions: Vero C1008, 72 h, time 3 day
[17] = as §1, with “H7N9” for “H1N1”, “visual” for “neutral red dye based”, “inhibition of viral replication” for “reduction in virus-induced cytopathic effect”; assay type: toxicity, cell-based; conditions: read-out: Ratio CC50/EC50
[18] = test system: Rift Valley fever virus; experiment: Antiviral activity against Rift valley fever virus infected in African green monkey Vero 76 cells assessed as reduction in virus-induced cytopathic effect measured after 15 to 30 mins by neutral red dye based analysis; assay type: functional, organism-based
[19] = test system: Influenza A virus; experiment: Antiviral activity against Influenza A virus H1N1 infected in dog MDCK cells assessed as reduction in virus-induced cytopathic effect measured after 15 to 30 mins by neutral red based analysis; assay type: functional, organism-based
[20] = as §1, with “African green monkey Vero 76” for “dog MDCK”, “Rift valley fever” for “Influenza A”, “virus” for “virus H1N1”; assay type: toxicity; conditions: read-out: Ratio CC50/EC50
[21] = Cytotoxicity against African green monkey Vero 76 cells infected with MERS-CoV assessed as reduction in cell viability by neutral red dye based analysis; assay type: toxicity; conditions: chlorocebus sabaeus
[22] = test system: Rift Valley fever virus; experiment: Antiviral activity against Rift valley fever virus infected in African green monkey Vero 76 cells assessed as reduction in virus-induced cytopathic effect measured after 15 to 30 mins by visual analysis; assay type: functional, organism-based
[23] = Selectivity index, ratio of CC50 for cytotoxicity against African green monkey Vero 76 infected with Zika virus assessed as reduction in cell viability by visual analysis to EC50 for antiviral activity against Zika virus infected in African green monkey Vero 76 cells assessed as reduction in virus-induced cytopathic effect by visual analysis; assay type: toxicity, cell-based; conditions: Vero 76 cells infected with Zika virus, read-out: Ratio CC50/EC50
[24] = test system: Zika virus; experiment: Antiviral activity against Zika virus infected in African green monkey Vero 76 cells assessed as reduction in virus-induced cytopathic effect measured after 15 to 30 mins by visual analysis; assay type: functional, organism-based
[25] = (§2) Selectivity index, ratio of CC50 for cytotoxicity against human Huh-7 cells infected with Yellow fever virus assessed as reduction in cell viability by neutral red dye based assay to EC50 for antiviral activity against Yellow fever virus infected in human Huh-7 cells assessed as reduction in virus-induced cytopathic effect by neutral red based analysis; assay type: toxicity; conditions: read-out: Ratio CC50/EC50
[26] = Cytotoxicity against African green monkey Vero cells infected with Tacaribe virus assessed as reduction in cell viability by neutral red dye based analysis; assay type: toxicity; conditions: chlorocebus sabaeus
[27] = test system: Influenza A virus; experiment: Antiviral activity against Influenza A virus H1N1 infected in dog MDCK cells assessed as reduction in virus-induced cytopathic effect measured after 15 to 30 mins by visual analysis; assay type: functional, organism-based
[28] = Selectivity index, ratio of CC50 for cytotoxicity against African green monkey Vero 76 cells infected with Zika virus assessed as reduction in cell viability by neutral red dye based analysis to EC50 for antiviral activity against Zika virus infected in African green monkey Vero 76 cells assessed as reduction in virus-induced cytopathic effect by neutral red based spectrophotometric analysis; assay type: toxicity; conditions: read-out: Ratio CC50/EC50
[29] = test system: Yellow fever virus; experiment: Antiviral activity against Yellow fever virus infected in human Huh-7 cells assessed as reduction in virus-induced cytopathic effect measured after 15 to 30 mins by visual analysis; assay type: functional, organism-based; conditions: Yellow fever virus, Huh-7; read-out: EC50
[30] = as §2, with “visual analysis” for “neutral red dye based assay”, “visual” for “neutral red based”; assay type: toxicity, cell-based; conditions: read-out: Ratio CC50/EC50
[31] = test system: Yellow fever virus; experiment: Antiviral activity against Yellow fever virus infected in human Huh-7 cells assessed as reduction in virus-induced cytopathic effect measured after 15 to 30 mins by neutral red based analysis; assay type: functional, organism-based
[32] = test system: Middle East respiratory syndrome-related coronavirus; experiment: Antiviral activity against MERS-CoV infected in African green monkey Vero 76 cells assessed as reduction in virus-induced cytopathic effect measured after 15 to 30 mins by neutral red dye based analysis; assay type: functional, organism-based
[33] = Cytotoxicity against dog MDCK cells infected with Influenza A virus H1N1 assessed as reduction in cell viability by visual analysis; assay type: toxicity, cell-based, Canis lupus familiaris
[34] = test system: Huh-7; experiment: Cytotoxicity against human Huh-7 cells infected with Yellow fever virus assessed as reduction in cell viability by visual assay; assay type: functional
[35] = Cytotoxicity against African green monkey Vero 76 cells infected with Zika virus assessed as reduction in cell viability by neutral red dye based assay; assay type: toxicity; conditions: chlorocebus sabaeus
[36] = test system: Huh-7; experiment: Cytotoxicity against human Huh-7 cells infected with DENV-2 assessed as reduction in cell viability by visual analysis; assay type: functional
[37] = Cytotoxicity against dog MDCK cells infected with Influenza A virus H1N1 assessed as reduction in cell viability by neutral red dye based assay; assay type: toxicity, Canis lupus familiaris
[38] = as §2, with “DENV-2” for “Yellow fever virus”, “visual analysis” for “neutral red dye based assay”, “visual” for “neutral red based”; assay type: toxicity, cell-based; conditions: read-out: Ratio CC50/EC50
[39] = test system: Huh-7; experiment: Cytotoxicity against human Huh-7 cells infected with DENV-2 assessed as reduction in cell viability by neutral red dye based assay; assay type: functional

For `Nc1ncnn2c([C@@H]3N[C@H](CO)[C@@H](O)[C@H]3O)ccc12`, which selectivity ratio [1] is on record?
Its selectivity ratio is 23.

And the CC50 [2]?
Its CC50 is 10 µM.

What about the pEC50 [3] of the same compound?
Its pEC50 is 6.49.

And the selectivity ratio [4]?
The selectivity ratio was 57.

What about the selectivity ratio [5] of the same compound?
The selectivity ratio was 2.9.

What about the CC50 [6] of the same compound?
Its CC50 is 8.9 µM.

What about the CC50 [7] of the same compound?
Its CC50 is 3.2 µM.

And the selectivity ratio [8]?
Its selectivity ratio is > 100.

And the pEC50 [9]?
Its pEC50 is 6.42.

And the CC50 [10]?
Its CC50 is 6.1 µM.

And the pEC50 [11]?
The pEC50 was 6.42.

What about the CC50 [12] of the same compound?
Its CC50 is 10 µM.

What about the pEC50 [13] of the same compound?
The pEC50 was 6.49.

And the selectivity ratio [14]?
Its selectivity ratio is > 240.

What about the pEC50 [15] of the same compound?
Its pEC50 is > 7.00.

What about the EC90 [16] of the same compound?
The EC90 was 150 nM.

And the selectivity ratio [17]?
Its selectivity ratio is 76.

And the pEC50 [18]?
The pEC50 was > 7.00.

What about the pEC50 [19] of the same compound?
The pEC50 was 6.55.

And the selectivity ratio [20]?
The selectivity ratio was > 89.

What about the CC50 [21] of the same compound?
Its CC50 is 4.4 µM.

And the pEC50 [22]?
Its pEC50 is > 7.00.

What about the selectivity ratio [23] of the same compound?
Its selectivity ratio is 19.

And the pEC50 [24]?
Its pEC50 is 6.49.

What about the selectivity ratio [25] of the same compound?
The selectivity ratio was 8.6.

And the CC50 [26]?
The CC50 was 6.6 µM.

What about the pEC50 [27] of the same compound?
Its pEC50 is 6.38.

And the selectivity ratio [28]?
Its selectivity ratio is 12.

And the pEC50 [29]?
Its pEC50 is 6.43.

And the selectivity ratio [30]?
Its selectivity ratio is 8.6.

And the pEC50 [31]?
Its pEC50 is 6.30.

What about the pEC50 [32] of the same compound?
Its pEC50 is 4.49.

And the CC50 [33]?
Its CC50 is 24 µM.

And the CC50 [34]?
Its CC50 is 3.2 µM.

And the CC50 [35]?
The CC50 was 4.4 µM.

What about the CC50 [36] of the same compound?
The CC50 was > 100 µM.

What about the CC50 [37] of the same compound?
Its CC50 is 3000 nM.

And the selectivity ratio [38]?
The selectivity ratio was 10.

And the CC50 [39]?
The CC50 was 2900 nM.

With `Nc1ncnc2c([C@@H]3N[C@H](CO)[C@@H](O)[C@H]3O)c[nH]c12` [GALIDESIVIR] as the compound, how does the selectivity ratio [1] read?
The selectivity ratio was > 30.

And the CC50 [2]?
Its CC50 is > 100 µM.

What about the pEC50 [3] of the same compound?
The pEC50 was 4.89.

And the selectivity ratio [4]?
The selectivity ratio was > 28.

And the selectivity ratio [5]?
The selectivity ratio was > 100.

And the CC50 [6]?
The CC50 was > 100 µM.

And the CC50 [7]?
The CC50 was > 100 µM.

And the selectivity ratio [8]?
Its selectivity ratio is > 4.3.

What about the pEC50 [9] of the same compound?
The pEC50 was 4.80.

What about the CC50 [10] of the same compound?
Its CC50 is > 100 µM.

What about the pEC50 [11] of the same compound?
The pEC50 was 4.48.

What about the CC50 [12] of the same compound?
Its CC50 is > 100 µM.

And the pEC50 [13]?
The pEC50 was < 4.00.

And the pEC50 [18]?
The pEC50 was 4.57.

And the pEC50 [19]?
Its pEC50 is 5.48.

What about the selectivity ratio [20] of the same compound?
Its selectivity ratio is > 3.7.

And the CC50 [21]?
Its CC50 is > 100 µM.

And the pEC50 [22]?
The pEC50 was 4.64.

And the selectivity ratio [23]?
Its selectivity ratio is > 8.3.

What about the pEC50 [24] of the same compound?
The pEC50 was 4.92.

And the selectivity ratio [25]?
Its selectivity ratio is > 5.6.

And the pEC50 [27]?
Its pEC50 is 5.44.

What about the selectivity ratio [28] of the same compound?
The selectivity ratio was > 3.

What about the pEC50 [29] of the same compound?
The pEC50 was < 4.00.

What about the selectivity ratio [30] of the same compound?
The selectivity ratio was > 3.6.

And the pEC50 [31]?
Its pEC50 is 4.74.

And the pEC50 [32]?
Its pEC50 is < 4.00.

And the CC50 [33]?
Its CC50 is > 100 µM.

And the CC50 [34]?
Its CC50 is > 100 µM.

And the CC50 [35]?
The CC50 was > 100 µM.

What about the CC50 [36] of the same compound?
The CC50 was > 100 µM.

And the CC50 [37]?
The CC50 was > 100000 nM.

What about the selectivity ratio [38] of the same compound?
The selectivity ratio was > 7.7.

What about the CC50 [39] of the same compound?
The CC50 was > 100000 nM.
